Assay results taken from paper PMC5429796, “Engineered P450 biocatalysts show improved activity and regio-promiscuity in aromatic nitration” (Scientific Reports, 2017).

What was measured:
TxtE [1] = target: T1, TxtE (Streptomyces scabiei, UniProt C9ZDC6); assay: UV-Vis difference spectroscopy (Type I shift) titration of Trp analogues to 1.5 µM purified P450 in 25 mM Tris-HCl, pH 8.0, fitted to Michaelis-Menten type equation; at least three repeats.; type: binding; settings: n = 3
T1 construct: wild type, pET28b construct, Ni-NTA purified
T1 sequence (C9ZDC6 1-406): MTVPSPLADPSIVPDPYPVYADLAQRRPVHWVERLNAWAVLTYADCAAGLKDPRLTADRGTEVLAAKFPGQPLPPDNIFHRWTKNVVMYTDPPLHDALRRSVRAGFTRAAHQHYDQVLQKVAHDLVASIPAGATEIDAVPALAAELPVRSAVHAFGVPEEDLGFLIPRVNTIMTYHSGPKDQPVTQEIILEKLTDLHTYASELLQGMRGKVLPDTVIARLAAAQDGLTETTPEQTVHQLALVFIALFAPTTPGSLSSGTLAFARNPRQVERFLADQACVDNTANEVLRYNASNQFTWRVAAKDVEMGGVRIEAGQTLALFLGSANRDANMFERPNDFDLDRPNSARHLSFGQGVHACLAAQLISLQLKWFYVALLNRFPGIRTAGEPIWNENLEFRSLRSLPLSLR
Description: (§1) The ferric heme of enzymes was then saturated by bubbling carbon monoxide (Airgas) and the spectra of the saturated enzyme solutions were recorded. Sodium dithionite solution (30 μL, 0.5 M) was then added to reduce ferric ion, and reduced spectra were taken subsequently. CO reduced difference spectra of all P450s were created by […]. Data were further analyzed by Excel. […] The changes in absorbance (ΔA) were determined by subtracting the absorbance at ~420 nm from that at ~390 nm. Data were then fitted to the equation of ΔA = ΔAmax[L]/(Kd + [L]) using GraphPad Prism 4.
(§2) in 25 mM Tris-HCl, pH 8.0. All experiments were repeated at least three times. Data
(§3) were fitted to the Michaelis-Menten equation.

TB14 [2] = target: T2, TB14 (UniProt C9ZDC6+P14779); assay: Binding affinities of Trp analogues toward TB14 (spectral shift); settings: for Kd: read-out: TB14 Kd, 1.5 µM enzyme, 25 mM Tris-HCl pH 8.0
T2 construct: BM3R: reductase domain of CYP102A1 (P450BM3); made in house; host or cells: E. coli BL21-GOLD (DE3), pET28b-TxtE-BM3R
Description: as §1
(§4) in 25 mM Tris-HCl, pH 8.0. All experiments were repeated at least three times. […]

TB14 [3] = target: T2, TB14; assay: Nitration of Trp analogues by TB14 (HPLC, 45 min); type: biochemical; settings: for nitrated a significant amount by TB14: after 45 mins, 0.5 mM substrate, 1.5 µM P450
Description: (§5) The reactions were prepared as described previously and incubated at 20 °C, 300 rpm for 45 minutes. All experiments were repeated at least three times.
(§6) After centrifugation, 10 μl solutions were analyzed by HPLC. […] All reactions were independently repeated at least three times. In TTN and coupling efficiency studies, 0.5 µM P450s and 0.5 mM substrate were used. […] All experiments were performed at least in triplication.

TxtE [4] = target: T3, TxtE (Streptomyces scabiei, UniProt C9ZDC6); type: biochemical, Streptomyces scabies; design: made in house; settings: for nitrated a significant amount by TxtE: after 45 mins, 0.5 mM substrate, 1.5 µM P450
Description: as §5, §6

TB14 [5] = target: T4, TB14 (UniProt C9ZDC6); assay: Binding affinities of Trp analogues toward TB14 (spectral shift); settings: 1.5 µM enzyme, 25 mM Tris-HCl pH 8.0
T4 construct: BM3R: reductase domain of CYP102A1 (P450BM3); made in house; host or cells: E. coli BL21-GOLD (DE3), pET28b-TxtE-BM3R
Description: as §1, §4

TxtE [6] = target: T3, TxtE; assay: biochemical; type: binding, Streptomyces scabies; design: made in house; host or cells: E. coli BL21-GOLD (DE3), pET28b
Description: as §1, §2, §3

TB14 [7] = target: T2, TB14; assay: Scaled-up TB14 nitration of 4-Me-DL-Trp (Marfey's derivatization, NMR); type: biochemical; settings: scaled-up reaction with 4-Me-DL-Trp
Description: The reactions in a 200-ml flask were incubated at 20 °C, 250 rpm overnight, and then terminated by 20 mL methanol or acidification to pH 1.0 with 6 M HCl. After centrifugation, the supernatants were concentrated in vacuo and then freeze-dried. The products were redissolved in 3 ml methanol for semi-preparation[22].
4-Me-Trp and nitrated 4-Me-Trp from enzyme reactions were reacted with Marfey’s reagent following manufacture manual (Thermo Scientific). Derivatized products were analyzed by LC-MS with A SHIMADZU Prominence UPLC system fitted with a Waters SymmetryShieldTM RP-C18 column (3.5 µm, 4.6 × 100 mm) and a Linear Ion Trap Quadrupole LC/MS/MS Mass Spectrometer system. The flow rate was 0.5 mL/min. The column was eluted with 90% solvent A (0.05 M triethylammonium acetate, pH 3.0), 10% solvent B (acetonitrile) for 2 min and then with a linear gradient of 10–50% solvent B for 60 min. The column was then cleaned by 50% solvent B for 5 min followed by a re-equilibration with 10% solvent B for 2 min. For MS detection, the turbo spray conditions used were: curtain gas: 30 psi; ion spray voltage: 5000 V; temperature: 550 °C; ion source gas 1: 30 psi; ion source gas 2: 20 psi.

TB11 = assay: UV-Vis difference spectroscopy (Type I shift, ΔA ~390 minus ~420 nm) titration of Trp to 1.5 µM purified P450 in 25 mM Tris-HCl, pH 8.0, hyperbolic fit; at least three repeats.; type: binding; settings: n = 3
Description: (§7) We next determined coupling efficiency to evaluate the extent to which linker length and structural swapping may affect electron transfer compatibility during nitration reaction (Table 1). […] Additionally, we determined total turnover number (TTN) as nmol product per nmol P450 in all reactions (Table 1).
as §1

TB12 = assay: as above; type: binding; settings: n = 3
Description: as §7, §1

TB13-Q = assay: as above; type: binding; settings: n = 3
Description: as §7, §1

TB13S = assay: as above; type: binding; settings: n = 3
Description: as §7, §1

TB13 = assay: as above; type: binding; settings: n = 3
Description: as §7, §1

TB15 = assay: as above; type: binding; settings: n = 3
Description: as §7, §1

TB16 = assay: as above; type: binding; settings: n = 3
Description: as §7, §1

TB17 = assay: as above; type: binding; settings: n = 3
Description: as §7, §1

TB19 = assay: as above; type: binding; settings: n = 3
Description: as §7, §1

TB22 = assay: as above; type: binding; settings: n = 3
Description: as §7, §1

TB24 = assay: as above; type: binding; settings: n = 3
Description: as §7, §1

TB27 = assay: as above; type: binding; settings: n = 3
Description: as §7, §1

[8] = read-out: TxtE Kd (µM), TB14 Kd

N[C@H](Cc1c[nH]c2ccccc12)C(=O)O [D-Trp, D-tryptophan]
Kd (TxtE [1]; [8]): 430 µM

Cc1cccc2[nH]cc(CC(N)C(=O)O)c12 (racemic) [4-Me-Trp, 4-Me-DL-Tryptophan]
binding affinity, times higher than 4-F-DL-Trp (TB14 [2]; from Table S1): 13 times
Kd (TB14 [2]): 14 ± 1 µM
nitration by TB14, times favoured over 4-F-DL-Trp (TB14 [3]; 45 min, Fig. 3): about 8 times
nitrated a significant amount by TB14 (TB14 [3]): nitrated a significant amount
nitrated a significant amount by TxtE (TxtE [4]): nitrated a significant amount

COc1ccc2[nH]cc(CC(N)C(=O)O)c2c1 (racemic) [5-MeO-Trp, 5-methoxy-DL-tryptophan]
Kd (TxtE [1]; [8]): 29 µM

NCCc1c[nH]c2ccccc12 [Tryptamine]
Kd (TB14 [5]): 60 ± 8 µM
Kd (TxtE [6]): 68 ± 6 µM

CC(N)(Cc1c[nH]c2ccccc12)C(=O)O (stereo not drawn) [α-Me-Trp]
Kd (TB14 [2]): 95 ± 9 µM
nitrated a significant amount by TB14 (TB14 [3]): not
Kd (TxtE [6]; read-out: TxtE Kd, 1.5 µM enzyme, 25 mM Tris-HCl pH 8.0): 100 ± 4 µM

O=C(O)C(=O)Cc1c[nH]c2ccccc12 [Indole-3-pyruvic acid]
Kd (TB14 [5]): 480 ± 32 µM
Kd (TxtE [6]): 390 ± 43 µM

N[C@@H](Cc1c[nH]c2ccc(F)cc12)C(=O)O [5-F-L-Trp]
Kd (TB14 [2]): 78 ± 6 µM
substrate ranking in the TB14 reaction (TB14 [3]; 45 min): comparable to Trp as the best
nitrated a significant amount by TB14 (TB14 [3]): nitrated a significant amount
substrate ranking in the TxtE reaction (TxtE [4]; 45 min): best substrate of TxtE
nitrated a significant amount by TxtE (TxtE [4]): nitrated a significant amount

N[C@@H](Cc1c[nH]c2ccc(O)cc12)C(=O)O [5-OH-L-Trp]
Kd (TB14 [2]): 450 ± 16 µM

Cc1cccc2c(CC(N)C(=O)O)c[nH]c12 (centres unmarked) [7-Me-Trp]
Kd (TB14 [2]): 11 ± 1 µM
nitrated a significant amount by TB14 (TB14 [3]): not

N[C@H](Cc1c[nH]c2ccccc12)C(=O)O [D-Trp]
Kd (TB14 [2]): 470 ± 25 µM

Cc1cccc2c(CC(N)C(=O)O)c[nH]c12 (racemic) [7-Me-Trp, 7-methyl-DL-tryptophan]
Kd (TxtE [1]; [8]): 13 µM

O=C(O)C1Cc2c([nH]c3ccccc23)CN1 (stereo not drawn) [2,3,4,9-Tetrahydro-1H-β-carboline-3-carboxynate]
Kd (TB14 [2]): 730 ± 86 µM

NC(Cc1c[nH]c2cccc(F)c12)C(=O)O (centres unmarked) [4-F-Trp]
Kd (TB14 [2]): 180 ± 13 µM
nitrated a significant amount by TB14 (TB14 [3]): not

c1ccc2[nH]ccc2c1 [indole]
interaction with TB14 in spectroscopic analysis (Type I spectral shift) (TB14 [2]): no detectable level of interaction
interaction with TxtE in spectroscopic analysis (TxtE [6]): no detectable level of interaction

NCCc1c[nH]c2ccc(O)cc12 [Serotonin]
Kd (TB14 [5]): 310 ± 39 µM
Kd (TxtE [6]): 320 ± 31 µM

O=C(O)C1Cc2c([nH]c3ccccc23)CN1 (stereo not drawn) [2,3,4,9-tetrahydro-1H-β-carboline-3-carboxylate]
Kd (TxtE [1]; [8]): 580 µM

Cc1ccc2[nH]cc(CC(N)C(=O)O)c2c1 (centres unmarked) [5-Me-Trp]
Kd (TB14 [2]): 30 ± 1 µM
nitrated a significant amount by TB14 (TB14 [3]): nitrated a significant amount
nitrated a significant amount by TxtE (TxtE [4]): nitrated a significant amount

COc1ccc2[nH]cc(CC(N)C(=O)O)c2c1 (centres unmarked) [5-MeO-Trp]
Kd (TB14 [2]): 26 ± 2 µM
nitrated a significant amount by TB14 (TB14 [3]): not

NC(Cc1c[nH]c2cc(F)ccc12)C(=O)O (racemic) [6-F-Trp, 6-fluoro-DL-tryptophan]
Kd (TxtE [1]): 73 µM

Cc1cccc2[nH]cc(C[C@H](N)C(=O)O)c12 [4-Me-L-Trp]
consumption of substrate in the TB14 reaction (TB14 [7]): ~ 85%

Cc1ccc2[nH]cc(CC(N)C(=O)O)c2c1 (racemic) [5-Me-Trp, 5-methyl-DL-tryptophan]
Kd (TxtE [1]; [8]): 35 µM

N[C@@H](Cc1c[nH]c2ccccc12)C(=O)O [L-Trp, L-tryptophan]
Kd (TB14 [5]): 17 ± 1 µM
Kd (TxtE [6]): 25 ± 1 µM

N[C@@H](Cc1c[nH]c2cc(F)ccc12)C(=O)O [6-F-Trp]
Kd (TB14 [2]): 65 ± 5 µM
nitrated a significant amount by TB14 (TB14 [3]): nitrated a significant amount
nitrated a significant amount by TxtE (TxtE [4]): nitrated a significant amount

N[C@@H](Cc1c[nH]c2ccccc12)C(=O)O [Trp, L-tryptophan]
Kd (TB11): 16.2 ± 0.6 µM
Kd (TB12): 22.3 ± 1.4 µM
Kd (TB13-Q): 21.5 ± 0.8 µM
Kd (TB13S): 19.3 ± 0.6 µM
Kd (TB13): 21.3 ± 0.4 µM
Kd (TB15): 21.4 ± 0.9 µM
Kd (TB16): 18.9 ± 1 µM
Kd (TB17): 15.5 ± 0.6 µM
Kd (TB19): 16 ± 0.8 µM
Kd (TB22): 27.1 ± 1.3 µM
Kd (TB24): 14.9 ± 0.3 µM
Kd (TB27): 16.2 ± 1.1 µM

N[C@H](CO)Cc1c[nH]c2ccccc12 [L-tryptophanol]
Kd (TB14 [2]): 280 ± 43 µM
Kd (TxtE [1]; [8]): 220 µM

NC(Cc1c[nH]c2cccc(F)c12)C(=O)O (racemic) [4-F-Trp, 4-fluoro-DL-tryptophan]
Kd (TxtE [1]): 190 µM

N[C@@H](Cc1c[nH]c2ccc(F)cc12)C(=O)O [5-F-L-Trp, 5-fluoro-L-tryptophan]
Kd (TxtE [1]): 84 µM

Cc1cccc2[nH]cc(CC(N)C(=O)O)c12 (racemic) [4-Me-Trp, 4-methyl-DL-tryptophan]
Kd (TxtE [1]): 10 µM

N[C@@H](Cc1c[nH]c2ncccc12)C(=O)O [7-Azatryptophan]
Kd (TB14 [5]): 26 ± 1 µM
Kd (TxtE [6]): 17 ± 1 µM

N[C@@H](Cc1c[nH]c2ccc(O)cc12)C(=O)O [5-OH-L-Trp, 5-hydroxy-L-tryptophan]
Kd (TxtE [1]; [8]): 340 µM
